{
  "source": "BindingDB's records for patent US11504368",
  "about": "(Thomas Helledays Stiftelse FÖr Medicinsk Forskning, 2022)",
  "target": "T1, Bifunctional methylenetetrahydrofolate dehydrogenase/cyclohydrolase, mitochondrial (Homo sapiens, UniProt P13995)",
  "T1 sequence (P13995 whole entry)": "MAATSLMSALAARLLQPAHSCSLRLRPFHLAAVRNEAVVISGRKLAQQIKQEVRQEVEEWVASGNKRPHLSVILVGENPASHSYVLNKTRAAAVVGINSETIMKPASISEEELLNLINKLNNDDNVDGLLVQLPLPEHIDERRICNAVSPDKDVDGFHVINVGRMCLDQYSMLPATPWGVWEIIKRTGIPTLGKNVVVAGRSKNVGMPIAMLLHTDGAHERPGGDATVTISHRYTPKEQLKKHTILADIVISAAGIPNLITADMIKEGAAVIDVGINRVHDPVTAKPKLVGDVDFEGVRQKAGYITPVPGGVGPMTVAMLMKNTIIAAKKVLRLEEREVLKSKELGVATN",
  "test": "Inhibition of MTHFD2",
  "method": "DMSO was used as negative control. The serial dilution in DMSO, from compound DMSO stock solution, was created by dispensing from a 384-well low dead volume microplate (LP-0200, Labcyte) and a 384-well polypropylene microplate 2.0 (PP-0200, Labcyte). A total of 2.5 μL MTHFD2 was preincubated with compound or DMSO for 10 min. The enzymatic reaction was initiated by adding 2.5 μL folitixorin (F680350, Toronto Research Chemicals). For background control, 5 μL buffer was added to the well. […] The final concentrations of all reagents in a total assay volume of 5 μL per well were 50 mmol/L Tris-HCl at pH 8.0, 100 mmol/L NaCl, 5 mmol/L MgCl2, 25 mmol/L Na3PO4 at pH 8.0, 0.005% (v/v) Tween-20, and 2 mmol/L 2-mercaptoethanol. After 15 min reaction time, 5 μL NAD(P)H-Glo detection reagent (G9061 or G9062, Promega) was dispensed in all wells and the plate was incubated for 60 min. Luminescence was measured on a plate reader (Envision, PerkinElmer or Sense, Hidex). The light signal produced is proportional to the amount of NAD(P)H in the sample.",
  "data": [
    {"smiles": "Nc1nc(N)c(NC(=O)Nc2ccc(C(=O)N[C@@H](CCc3ccccc3)C(=O)O)nc2)c(=O)[nH]1", "note": "[US11504368, Example 14]", "values": [
      {"measurement": "IC50", "result": 36, "unit": "nM"}
    ]}
  ]
}
